# Results taken from paper PMC9090415, “Discovery of small molecule inhibitors of Plasmodium falciparum apicoplast DNA polymerase” (Journal of Enzyme Inhibition and Medicinal Chemistry, 2022).
# Molecular target: P. falciparum apicoplast DNA polymerase (Pf-apPOL) (Plasmodium falciparum, UniProt Q8ILY1)
# Assay: Fluorescence-based high-throughput DNA polymerase assay (molecular beacon), primary screen and dose-response
# Format: biochemical
# Conditions: for DNA Pol: 90 min, 10 µM; for % inhibition Apo pol 10' 2.5 / % inhibition Apo pol 10' 5 / % inhibition Apo pol 10' 10 / % inhibition Apo pol 10' 20 / % inhibition Apo pol 10' 40 / % inhibition Apo pol 10' 80: read at 10'; for % inhibition Apol 90' 2.5 / % inhibition Apol 90' 5 / % inhibition Apol 90' 10 / % inhibition Apol 90' 20 / % inhibition Apol 90' 40 / % inhibition Apol 90' 80 / % inhibition ApPOL 90' 2.5 / % inhibition ApPOL 90' 5 / % inhibition ApPOL 90' 10 / % inhibition ApPOL 90' 20 / % inhibition ApPOL 90' 40 / % inhibition ApPOL 90' 80: read at 90'; for % inhibition apPOL 180' 2.5 / % inhibition apPOL 180' 5 / % inhibition apPOL 180' 10 / % inhibition apPOL 180' 20 / % inhibition apPOL 180' 40 / % inhibition apPOL 180' 80: read at 180'; for % inhibition Apo pol 5' 2.5 / % inhibition Apo pol 5' 5 / % inhibition Apo pol 5' 10 / % inhibition Apo pol 5' 20 / % inhibition Apo pol 5' 40 / % inhibition Apo pol 5' 80: read at 5'; for % inhibition Apol 40' 2.5 / % inhibition Apol 40' 5 / % inhibition Apol 40' 10 / % inhibition Apol 40' 20 / % inhibition Apol 40' 40 / % inhibition Apol 40' 80: read at 40'
# Outline: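 Single-point screening used 10 µM compound with 20 nM polymerase, 20 nM hairpin substrate and 6 µM dNTPs for 90 min at 25 °C. Confirmatory titrations (2.5–80 µM) followed fluorescence at three times, and IC50 was derived from a fit including a cooperativity term n.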
# [1] = 186 hits, DNA Pol (screen value), unit not given
# [2] = 'DNA Pol' (screen value), unit not given
# Sequence of P. falciparum apicoplast DNA polymerase (Pf-apPOL) (Q8ILY1 entry or part of it): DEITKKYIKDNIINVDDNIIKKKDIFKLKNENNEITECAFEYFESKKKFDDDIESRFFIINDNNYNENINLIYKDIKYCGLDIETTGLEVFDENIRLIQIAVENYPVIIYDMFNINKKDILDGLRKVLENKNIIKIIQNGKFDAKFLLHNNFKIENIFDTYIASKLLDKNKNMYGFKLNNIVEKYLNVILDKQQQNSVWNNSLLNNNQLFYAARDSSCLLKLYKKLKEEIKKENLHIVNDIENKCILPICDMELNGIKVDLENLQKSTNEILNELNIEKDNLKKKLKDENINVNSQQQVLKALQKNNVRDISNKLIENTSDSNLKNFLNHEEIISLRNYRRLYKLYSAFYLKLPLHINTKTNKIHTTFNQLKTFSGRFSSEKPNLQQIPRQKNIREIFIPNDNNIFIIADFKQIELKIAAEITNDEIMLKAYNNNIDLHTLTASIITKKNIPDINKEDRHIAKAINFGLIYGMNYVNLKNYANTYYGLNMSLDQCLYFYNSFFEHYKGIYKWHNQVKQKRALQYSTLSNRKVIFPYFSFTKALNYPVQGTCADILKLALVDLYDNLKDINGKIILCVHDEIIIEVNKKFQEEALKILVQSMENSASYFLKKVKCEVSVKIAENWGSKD
smiles,measurement,setting,value
"COc1cccc(Oc2c(C(F)(F)F)oc3cc(OC(=O)N(C)C)ccc3c2=O)c1 [Molecule 52, COc1cccc(c1)Oc1c(=O)c2ccc(cc2oc1C(F)(F)F)OC(=O)N(C)C]",DNA Pol,'DNA Pol' of the 186 hits list (primary screen value),61
same,DNA Pol,DNA Pol (primary screen value),61
same,% inhibition Apo pol 10',"DRC-1, concentration 2.5",6.553%
same,% inhibition Apo pol 10',"DRC-1, concentration 5",12.9509%
same,% inhibition Apo pol 10',"DRC-1, concentration 10",26.9326%
same,% inhibition Apo pol 10',"DRC-1, concentration 20",35.5271%
same,% inhibition Apo pol 10',"DRC-1, concentration 40",51.7019%
same,% inhibition Apo pol 10',"DRC-1, concentration 80",57.2765%
same,% inhibition Apol 90',"DRC-1, concentration 2.5",11.9844%
same,% inhibition Apol 90',"DRC-1, concentration 5",19.0717%
same,% inhibition Apol 90',"DRC-1, concentration 10",34.8904%
same,% inhibition Apol 90',"DRC-1, concentration 20",41.7615%
same,% inhibition Apol 90',"DRC-1, concentration 40",58.6612%
same,% inhibition Apol 90',"DRC-1, concentration 80",63.3235%
same,% inhibition apPOL 180',"DRC-1, concentration 2.5",22.4742%
same,% inhibition apPOL 180',"DRC-1, concentration 5",28.9407%
same,% inhibition apPOL 180',"DRC-1, concentration 10",43.333%
same,% inhibition apPOL 180',"DRC-1, concentration 20",44.974%
same,% inhibition apPOL 180',"DRC-1, concentration 40",65.9617%
same,% inhibition apPOL 180',"DRC-1, concentration 80",64.6101%
same,% inhibition Apo pol 5',"DRC-2, concentration 2.5",15%
same,% inhibition Apo pol 5',"DRC-2, concentration 5",18%
same,% inhibition Apo pol 5',"DRC-2, concentration 10",27%
same,% inhibition Apo pol 5',"DRC-2, concentration 20",32%
same,% inhibition Apo pol 5',"DRC-2, concentration 40",40%
same,% inhibition Apo pol 5',"DRC-2, concentration 80",42%
same,% inhibition Apol 40',"DRC-2, concentration 2.5",14%
same,% inhibition Apol 40',"DRC-2, concentration 5",14%
same,% inhibition Apol 40',"DRC-2, concentration 10",33%
same,% inhibition Apol 40',"DRC-2, concentration 20",41%
same,% inhibition Apol 40',"DRC-2, concentration 40",50%
same,% inhibition Apol 40',"DRC-2, concentration 80",56%
same,% inhibition ApPOL 90',"DRC-2, concentration 2.5",14%
same,% inhibition ApPOL 90',"DRC-2, concentration 5",8%
same,% inhibition ApPOL 90',"DRC-2, concentration 10",33%
same,% inhibition ApPOL 90',"DRC-2, concentration 20",41%
same,% inhibition ApPOL 90',"DRC-2, concentration 40",51%
same,% inhibition ApPOL 90',"DRC-2, concentration 80",58%
same,% inhibition apPOL 180',"DRC-2, concentration 2.5",6.57%
same,% inhibition apPOL 180',"DRC-2, concentration 5",-58%
same,% inhibition apPOL 180',"DRC-2, concentration 10",24%
same,% inhibition apPOL 180',"DRC-2, concentration 20",33%
same,% inhibition apPOL 180',"DRC-2, concentration 40",45%
same,% inhibition apPOL 180',"DRC-2, concentration 80",54%
"COc1ccc(/C=C/c2cc(C(=O)O)c3ccccc3n2)cc1 [Molecule 5, COc1ccc(cc1)/C=C/c1nc2ccccc2c(c1)C(=O)O]",DNA Pol,[1],61
same,DNA Pol,[2],61
same,% inhibition Apo pol 10' 2.5,"DRC-1, concentration 2.5",43.4862%
same,% inhibition Apo pol 10' 5,"DRC-1, concentration 5",53.3879%
same,% inhibition Apo pol 10' 10,"DRC-1, concentration 10",61.7052%
same,% inhibition Apo pol 10' 20,"DRC-1, concentration 20",65.8277%
same,% inhibition Apo pol 10' 40,"DRC-1, concentration 40",71.2771%
same,% inhibition Apo pol 10' 80,"DRC-1, concentration 80",72.4327%
same,% inhibition Apol 90' 2.5,"DRC-1, concentration 2.5",35.7188%
same,% inhibition Apol 90' 5,"DRC-1, concentration 5",44.8099%
same,% inhibition Apol 90' 10,"DRC-1, concentration 10",55.1819%
same,% inhibition Apol 90' 20,"DRC-1, concentration 20",60.94%
same,% inhibition Apol 90' 40,"DRC-1, concentration 40",68.5014%
same,% inhibition Apol 90' 80,"DRC-1, concentration 80",67.8921%
same,% inhibition apPOL 180' 2.5,"DRC-1, concentration 2.5",28.4361%
same,% inhibition apPOL 180' 5,"DRC-1, concentration 5",35.945%
same,% inhibition apPOL 180' 10,"DRC-1, concentration 10",46.8104%
same,% inhibition apPOL 180' 20,"DRC-1, concentration 20",54.1695%
same,% inhibition apPOL 180' 40,"DRC-1, concentration 40",63.6204%
same,% inhibition apPOL 180' 80,"DRC-1, concentration 80",63.471%
same,% inhibition Apo pol 5',"DRC-2, concentration 20",38%
same,% inhibition Apol 40',"DRC-2, concentration 2.5",46%
same,% inhibition Apol 40',"DRC-2, concentration 5",36%
same,% inhibition Apol 40',"DRC-2, concentration 20",46%
same,% inhibition Apol 40',"DRC-2, concentration 80",38%
same,% inhibition ApPOL 90',"DRC-2, concentration 2.5",45%
same,% inhibition ApPOL 90',"DRC-2, concentration 5",36%
same,% inhibition ApPOL 90',"DRC-2, concentration 20",46%
same,% inhibition apPOL 180',"DRC-2, concentration 20",38%
same,% inhibition apPOL 180',"DRC-2, concentration 80",45%
same,% inhibition Apo pol 5' 2.5,"DRC-2, concentration 2.5",37%
same,% inhibition Apo pol 5' 5,"DRC-2, concentration 5",31%
same,% inhibition Apo pol 5' 10,"DRC-2, concentration 10",8.56%
same,% inhibition Apo pol 5' 20,"DRC-2, concentration 20",38%
same,% inhibition Apo pol 5' 40,"DRC-2, concentration 40",43%
same,% inhibition Apo pol 5' 80,"DRC-2, concentration 80",14%
same,% inhibition Apol 40' 2.5,"DRC-2, concentration 2.5",46%
same,% inhibition Apol 40' 5,"DRC-2, concentration 5",36%
same,% inhibition Apol 40' 10,"DRC-2, concentration 10",-66%
same,% inhibition Apol 40' 20,"DRC-2, concentration 20",46%
same,% inhibition Apol 40' 40,"DRC-2, concentration 40",55%
same,% inhibition Apol 40' 80,"DRC-2, concentration 80",38%
same,% inhibition ApPOL 90' 2.5,"DRC-2, concentration 2.5",45%
same,% inhibition ApPOL 90' 5,"DRC-2, concentration 5",36%
same,% inhibition ApPOL 90' 10,"DRC-2, concentration 10",-90%
same,% inhibition ApPOL 90' 20,"DRC-2, concentration 20",46%
same,% inhibition ApPOL 90' 40,"DRC-2, concentration 40",56%
same,% inhibition ApPOL 90' 80,"DRC-2, concentration 80",44%
same,% inhibition apPOL 180' 2.5,"DRC-2, concentration 2.5",34%
same,% inhibition apPOL 180' 5,"DRC-2, concentration 5",25%
same,% inhibition apPOL 180' 10,"DRC-2, concentration 10",-139%
same,% inhibition apPOL 180' 20,"DRC-2, concentration 20",38%
same,% inhibition apPOL 180' 40,"DRC-2, concentration 40",50%
same,% inhibition apPOL 180' 80,"DRC-2, concentration 80",45%
"O=C(c1ccccc1)N1CCc2c(nc3cc(-c4ccccc4)[nH]n3c2=O)C1 [Molecule 30, O=C(N1CCc2c(C1)nc1n(c2=O)[nH]c(c1)c1ccccc1)c1ccccc1]",DNA Pol,[1],51
same,DNA Pol,[2],51
same,% inhibition Apo pol 10' 2.5,"DRC-1, concentration 2.5",12.9086%
same,% inhibition Apo pol 10' 5,"DRC-1, concentration 5",15.849%
same,% inhibition Apo pol 10' 10,"DRC-1, concentration 10",54.0092%
same,% inhibition Apo pol 10' 20,"DRC-1, concentration 20",76.4447%
same,% inhibition Apo pol 10' 40,"DRC-1, concentration 40",86.2157%
same,% inhibition Apo pol 10' 80,"DRC-1, concentration 80",78.4105%
same,% inhibition Apol 90' 2.5,"DRC-1, concentration 2.5",4.897%
same,% inhibition Apol 90' 5,"DRC-1, concentration 5",3.579%
same,% inhibition Apol 90' 10,"DRC-1, concentration 10",37.2459%
same,% inhibition Apol 90' 20,"DRC-1, concentration 20",61.0288%
same,% inhibition Apol 90' 40,"DRC-1, concentration 40",75.6472%
same,% inhibition Apol 90' 80,"DRC-1, concentration 80",72.6232%
same,% inhibition apPOL 180' 2.5,"DRC-1, concentration 2.5",0.553%
same,% inhibition apPOL 180' 5,"DRC-1, concentration 5",-2.049%
same,% inhibition apPOL 180' 10,"DRC-1, concentration 10",22.4217%
same,% inhibition apPOL 180' 20,"DRC-1, concentration 20",42.2339%
same,% inhibition apPOL 180' 40,"DRC-1, concentration 40",59.6497%
same,% inhibition apPOL 180' 80,"DRC-1, concentration 80",57.0627%
same,% inhibition Apo pol 5',"DRC-2, concentration 5",18%
same,% inhibition Apo pol 5',"DRC-2, concentration 10",37%
same,% inhibition Apo pol 5',"DRC-2, concentration 20",50%
same,% inhibition Apo pol 5',"DRC-2, concentration 80",37%
same,% inhibition Apol 40',"DRC-2, concentration 20",61%
same,% inhibition ApPOL 90',"DRC-2, concentration 5",18%
same,% inhibition ApPOL 90',"DRC-2, concentration 20",60%
same,% inhibition ApPOL 90',"DRC-2, concentration 40",61%
same,% inhibition ApPOL 90',"DRC-2, concentration 80",60%
same,% inhibition apPOL 180',"DRC-2, concentration 20",50%
same,% inhibition Apo pol 5' 2.5,"DRC-2, concentration 2.5",6.51%
same,% inhibition Apo pol 5' 5,"DRC-2, concentration 5",18%
same,% inhibition Apo pol 5' 10,"DRC-2, concentration 10",37%
same,% inhibition Apo pol 5' 20,"DRC-2, concentration 20",50%
same,% inhibition Apo pol 5' 40,"DRC-2, concentration 40",48%
same,% inhibition Apo pol 5' 80,"DRC-2, concentration 80",37%
same,% inhibition Apol 40' 2.5,"DRC-2, concentration 2.5",6.57%
same,% inhibition Apol 40' 5,"DRC-2, concentration 5",20%
same,% inhibition Apol 40' 10,"DRC-2, concentration 10",41%
same,% inhibition Apol 40' 20,"DRC-2, concentration 20",61%
same,% inhibition Apol 40' 40,"DRC-2, concentration 40",62%
same,% inhibition Apol 40' 80,"DRC-2, concentration 80",57%
same,% inhibition ApPOL 90' 2.5,"DRC-2, concentration 2.5",5%
same,% inhibition ApPOL 90' 5,"DRC-2, concentration 5",18%
same,% inhibition ApPOL 90' 10,"DRC-2, concentration 10",39%
same,% inhibition ApPOL 90' 20,"DRC-2, concentration 20",60%
same,% inhibition ApPOL 90' 40,"DRC-2, concentration 40",61%
same,% inhibition ApPOL 90' 80,"DRC-2, concentration 80",60%
same,% inhibition apPOL 180' 2.5,"DRC-2, concentration 2.5",0.84%
same,% inhibition apPOL 180' 5,"DRC-2, concentration 5",10%
same,% inhibition apPOL 180' 10,"DRC-2, concentration 10",29%
same,% inhibition apPOL 180' 20,"DRC-2, concentration 20",50%
same,% inhibition apPOL 180' 40,"DRC-2, concentration 40",52%
same,% inhibition apPOL 180' 80,"DRC-2, concentration 80",54%
